Laboratory results published in paper PMC4552745, “Novel Gallate Triphenylphosphonium Derivatives with Potent Antichagasic Activity” (PLoS ONE, 2015).

Columns and labels:
[1] = tested on: T. cruzi intracellular amastigotes in VERO cells; experiment: DAPI staining and intracellular amastigote quantification in infected VERO cells; assay type: cell-based, Trypanosoma cruzi; settings: 1 μM, 48 hours, control 12.9 ± 2.2
Description: VERO (Chlorocebus sabaeus kidney fibroblasts, ATCC number: CCL-81) cells were exposed to T. cruzi trypomastigotes (Y strain) at a 5:1 ratio (trypomastigotes:cells) for 24 hours. The cells were then washed and treated with different compounds, at 0.1 and 1 μM, for 48 hours. The cells were washed and fixed in cold methanol (70%) overnight; the fixed cells were washed, and 1 mL of PBS (pH 7.4) was added. The DNA was stained with DAPI (NucBlue, Molecular Probes, USA) following the manufacturer’s instructions. The cells were photographed using a Nikon Eclipse 400 fluorescence microscope at 358 nm (excitation) and 461 nm (emission). Five images were obtained per well, and each picture was analyzed by two independent researchers.

[2] = tested on: T. cruzi trypomastigotes mitochondrial transmembrane potential (ΔΨm); experiment: Mitochondrial membrane potential assessment by JC-1; assay type: cell-based, Trypanosoma cruzi; settings: 1 μM, 2 hours, Fig 5A bottom panel; FCCP 100 μM positive control
Description: For the determination of mitochondrial membrane potential by JC-1, we adapted the method described by Cossariza and Savioli (2001). In total, 5 x 10^6 trypomastigotes were seeded in 24-well plates in 1 mL of RPMI medium without FBS. The parasites were exposed to 0.1 or 1 μM of the different TPP^+ derivatives for 2 hours; alternatively, the parasites were exposed to 100 μM FCCP (Sigma Aldrich, USA) for 15 min as a positive control of the uncoupling of mitochondrial respiration. The cells were then washed with 500 μL of PBS and centrifuged at 1500 x g for 5 min. The parasites were then resuspended in 1 mL of PBS at 37°C. JC-1 (Molecular Probes, Applied Biosytems, USA) 1 mg/mL in DMSO was added at a final concentration of 5 μg/mL, and the mixtures were incubated for 15 min at 37°C in the dark. Next, the samples were centrifuged at 1500 x g for 5 min, and the supernatants, which contained unincorporated JC-1, were discarded. The pellet was suspended in PBS (1 mL), and fluorescence was measured using a FACSAria-III flow cytometer (BD Biosciences, USA). We used 488 nm as the excitation wavelength; the emission of JC-1 monomers was detected using the FITC filter (530/30), and the JC-1 aggregates were detected using the PE filter (585/42). Each measurement involved 5,000 events. The data were analyzed using FACSDiva 6.1 software.

[3] = tested on: T. cruzi trypomastigotes (Y strain) mitochondrial permeability transition pore; experiment: Mitochondrial permeability transition pore opening (calcein AM / CoCl2); assay type: cell-based, Trypanosoma cruzi; settings: 1 hour, Fig 6B
Description: The opening of mitochondrial permeability transition pores was assessed using the calcein AM probe, adapting the method described by Huang et al (2014). Calcein-AM is a lipophilic probe that can enter the cell, including the mitochondria, and is then cleaved by cellular esterases, releasing the fluorescent probe calcein. T. cruzi trypomastigotes (Y strain, 5 x 10^6 parasites/mL) were stained with 100 nM calcein AM (Molecular Probes, Applied Biosytems, USA) and incubated at 37°C for 15 min in the presence of […] of CoCl2 to quench the cytosolic fluorescence of calcein. Then, the parasites were washed with PBS and resuspended in RPMI medium, without phenol red, supplemented with 0.3 mM of Ca^+2. The parasites were then seeded in 24-well plates and exposed to the different compounds (TPP^+-C8, TPP^+-C10, TPP^+-C11, and TPP^+-C12) at 1 or 5 μM for 1 hour. As a positive control, one group was exposed to ionomycin (0.5 μM). The samples were measured using a FACS Aria III flow cytometer (BD Biosciences, USA) with the 494/517 filter to detect calcein fluorescence. For every measurement, 5,000 events were recorded. The raw flow cytometry data were analyzed using FACSDiva 6.1 software (BD Biosciences). The results were analyzed using the median fluorescence intensity (MFI) from the frequency histograms. Thus, we used the median intensity of the control group (parasites incubated with calcein AM and CoCl2) to establish 100% of mitochondrial fluorescence, thereby establishing percent ratios between the treatment groups and the control.

mouse = tested on: mouse; set-up: method as in PMID 24568614; settings: 15 mg/kg; cited from earlier work

Row | Compound | number of amastigotes per infected cell [1] | JC-1 red fluorescence (aggregates) [2] | mitochondrial calcein fluorescence (median fluorescence intensity) ([3]; 5 μM) | safety in mouse models (mouse) | mitochondrial calcein fluorescence (median fluorescence intensity) ([3]; 1 μM)
1 | O=C(OCCCCCCCCCC[P+](c1ccccc1)(c1ccccc1)c1ccccc1)c1cc(O)c(O)c(O)c1.[Br-] [TPP^+-C10, triphenyl(10-((3,4,5-trihydroxybenzoyl)oxy)-decyl) phosphonium bromide] | 2.5 ± 1.1 | induced mitochondrial changes, though to a lower extent than FCCP | 22 % of the control | safe | 
2 | O=C(OCCCCCCCCCCCC[P+](c1ccccc1)(c1ccccc1)c1ccccc1)c1cc(O)c(O)c(O)c1.[Br-] [TPP^+-C12, triphenyl(12-((3,4,5-trihydroxybenzoyl)oxy)-dodecyl) phosphonium bromide] | 2.0 ± 0.7 | induced mitochondrial changes, though to a lower extent than FCCP | 20 % of the control |  | 29 % of the control
